Source: US9315496B2, “Benzopyrone derivative and use thereof” (HUAZHONG UNIVERSITY OF SCIENCE & TECHNOLOGY, priority 2011, dated 2016)
Read-outs that look alike come from different tables or passages of the source.

Assays:
in vivo = conditions: both, mouse, po
Description: KM mice (half male and half female) were randomly divided into several groups (with 2-5 mice in each group), which were respectively the 2000 mg/kg groups for each compound, and the solvent group. 0.2 ml/10 g were administered intragastrically. The death of the animals in 3 days were observed. (In the case 3 or more animals survived in 3 days without notable abnormity in their life states, the observation was continued until the assay was completed in 7 days. In the case 3 or more animals died in 3 days, the median lethal dose method was used to determine the LD50).
0.2 ml/10 g were administered intragastrically, and the death of the animals in 1-3 days were observed.

D3 receptor = target: T1, D3 receptor (Homo sapiens, UniProt P35462); assay: D3 receptor assay ([3H]-Spiperone, HEK-293 cells); format: binding; conditions: for inhibition at 10 µM: final concentration 10 μmol/L, [3H]-Spiperone, HEK-293 cells; for affinity for D3 receptor (in words): in vitro receptor binding assay
T1 construct: expressed in transfected cells; host or cells: HEK-293
T1 sequence (P35462 whole entry): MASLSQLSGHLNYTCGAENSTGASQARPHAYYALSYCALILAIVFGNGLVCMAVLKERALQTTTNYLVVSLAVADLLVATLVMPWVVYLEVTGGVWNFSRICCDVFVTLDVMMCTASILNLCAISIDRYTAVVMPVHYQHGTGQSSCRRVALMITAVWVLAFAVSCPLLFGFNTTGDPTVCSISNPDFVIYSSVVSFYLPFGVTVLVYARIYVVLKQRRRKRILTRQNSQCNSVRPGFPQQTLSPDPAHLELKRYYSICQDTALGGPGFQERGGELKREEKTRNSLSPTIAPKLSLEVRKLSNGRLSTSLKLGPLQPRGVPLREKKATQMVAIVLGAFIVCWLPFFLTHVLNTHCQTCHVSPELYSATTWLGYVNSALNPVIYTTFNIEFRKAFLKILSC
Description: After the cells were centrifuged at 1000 rpm for 5 min, the supernatant was discarded, and the cell pellet was collected and stored in a −20° C. fridge for reservation. It was re-suspended with Tris-Cl (pH 7.4) in the assay.
Tris was divided into aliquots by Genetimes Technology Inc.
Competitive binding test for receptors: 20 μl of each of the test compounds and 20 μl of the radioactive ligand together with 160 μl of the receptor proteins were added into the reaction tubes, and the final concentrations of the test compound and the positive drug were all 10 μmol/L. After 50 min of incubation in 30° C. water bath, the tubes were immediately moved to ice bath to terminate the reactions. GF/C glass fiber filter papers were used for rapid sucking filtration on a Millipore cell sample collector, elution buffer (50 mM Tris-HCl, PH 7.4) was applied for 3 ml×3 times, and microwave was applied for 4-5 min for drying. The filter papers were moved into 0.5 ml centrifuge tubes, and 500 μl of lipid-soluble scintillation solution was added. The tubes were allowed to stand still for over 30 min in dark, and the intensities of radioactivity were measured by a counter.

5-HT2C receptor = 5-HT2C receptor (Rattus norvegicus, UniProt P08909); assay: 5HT2C receptor binding assay ([3H]-mesulergine, rat brain striatum membrane); conditions: for inhibition at 10 µM: read-out: 5HT2C inhibition %
Chain of 5-HT2C receptor (P08909 33-460): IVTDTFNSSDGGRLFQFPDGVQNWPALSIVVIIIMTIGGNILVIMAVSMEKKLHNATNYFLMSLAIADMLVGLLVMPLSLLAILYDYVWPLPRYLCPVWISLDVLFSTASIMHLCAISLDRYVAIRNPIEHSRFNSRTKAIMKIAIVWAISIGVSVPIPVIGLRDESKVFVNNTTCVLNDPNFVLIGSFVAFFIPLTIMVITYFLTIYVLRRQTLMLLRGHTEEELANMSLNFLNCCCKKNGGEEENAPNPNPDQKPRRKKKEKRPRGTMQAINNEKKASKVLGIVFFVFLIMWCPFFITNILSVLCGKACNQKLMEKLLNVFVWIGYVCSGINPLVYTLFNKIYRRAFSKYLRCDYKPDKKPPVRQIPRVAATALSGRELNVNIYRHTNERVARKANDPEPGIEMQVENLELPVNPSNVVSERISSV

Catalepsy assay = format: in vivo; conditions: both sexes, Kunming (KM), mouse, in vivo; mice, po
Description: Healthy mice of Kunming breed (with half male and half female, (22±2)g) were provided by Qinglongshan Animal Cultivation Center, Nanjing.
Instruments: self-made bar-grabbing apparatus: stainless steel bar in mice box, which was 0.3 cm in diameter and […].
Corresponding solvent double-distilled water was administered intragastrically to the negative control group and the model group, corresponding positive drugs were administered intragastrically to the positive drug groups (a small amount of acetic acid was first added and then double-distilled water was added when dissolving), and corresponding dosages of compounds were administered intragastrically to the compound groups for each dosage, with the volume for intragastric administration as 0.1 ml/10 g. At 30 min, 60 min, 90 min after the intragastric administration, the two forepaws of the mice were gently placed on the bars (which were 20 cm in length, 0.3 cm in diameter, and 5.5 cm above the bench), and the hindpaws of the animals were placed on the bottom of the box. The durations for the mice to maintain the posture with the two forepaws on the bars were recorded, and 30 s of spasticity without moving was considered as the positive response. In the case the forepaws of the mice were not put down persistently, the observation was terminated at 60 s. The numbers of animals with positive response in each of the compound dosage groups were counted.

5-HT1A receptor = target: T2, 5-HT1A receptor (Rattus norvegicus, UniProt P19327); assay: 5HT1A receptor binding assay (3H-8-OH-DPAT, rat brain striatum membrane); conditions: for IC50: cells marked ^a; for IC50 / inhibition at 10 µM: 3H-8-OH-DPAT, rat brain striatum membrane; for affinity for 5-HT1A receptor (in words): in vitro receptor binding assay; for inhibition at 10 µM: test compound final concentration 10^−5 M
T2 sequence (P19327 1-422): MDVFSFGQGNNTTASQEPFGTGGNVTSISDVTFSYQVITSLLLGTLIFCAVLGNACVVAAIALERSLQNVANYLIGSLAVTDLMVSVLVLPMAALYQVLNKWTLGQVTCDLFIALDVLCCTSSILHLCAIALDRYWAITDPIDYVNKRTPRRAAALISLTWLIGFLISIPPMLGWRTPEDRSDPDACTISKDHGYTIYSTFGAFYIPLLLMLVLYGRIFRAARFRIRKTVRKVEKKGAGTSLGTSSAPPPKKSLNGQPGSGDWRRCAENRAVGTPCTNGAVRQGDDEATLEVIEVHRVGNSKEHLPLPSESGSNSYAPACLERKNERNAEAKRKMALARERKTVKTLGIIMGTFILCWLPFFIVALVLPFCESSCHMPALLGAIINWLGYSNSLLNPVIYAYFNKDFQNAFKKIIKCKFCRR
Description: Incubation at 37° C. was conducted for 10 min, the weight of the tubes were adjusted using a balance after incubation. […] Centrifugation was conducted and repeated 3 times.

dopamine D2 receptor = dopamine D2 receptor (Rattus norvegicus, UniProt P61169); assay: D2 receptor binding assay (3H-Spiperone, rat brain striatum membrane); conditions: for affinity for D2 receptor (in words): in vitro receptor binding assay; for inhibition at 10 µM: read-out: D2 inhibition %
Chain of dopamine D2 receptor (P61169 whole entry): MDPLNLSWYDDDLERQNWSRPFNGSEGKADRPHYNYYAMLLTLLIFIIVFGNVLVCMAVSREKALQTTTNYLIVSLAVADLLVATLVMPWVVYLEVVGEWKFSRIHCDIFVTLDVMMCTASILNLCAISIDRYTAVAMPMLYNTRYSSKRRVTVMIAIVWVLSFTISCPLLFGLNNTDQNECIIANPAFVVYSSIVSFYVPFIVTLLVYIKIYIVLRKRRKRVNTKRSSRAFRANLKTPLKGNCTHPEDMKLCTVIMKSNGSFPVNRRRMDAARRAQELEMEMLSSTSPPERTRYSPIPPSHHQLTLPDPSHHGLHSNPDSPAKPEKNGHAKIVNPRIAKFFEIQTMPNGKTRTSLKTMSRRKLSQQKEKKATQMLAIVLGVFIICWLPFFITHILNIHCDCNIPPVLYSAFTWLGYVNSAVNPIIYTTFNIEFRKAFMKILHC
Description: Rats were sacrificed by cervical dislocation on ice. Brain striatum was rapidly taken, and 2 brain striatums were combined into a centrifuge tube, to which 3 ml of buffer (0.05 M Tris-HCl buffer, containing NaCl 120 mM, KCl 5 mM, MgCl2 1 mM, CaCl2 1 mM) was added, homogenization was conducted for 3-4 s at level 4 for four times, and then 5 ml of buffer was then added. The weight of the homogenized tubes were adjusted using a balance, and centrifugation was conducted at 12000 r, 4° C. for 20 min. The supernatant was discarded, and 3 ml of buffer was added (0.05 M Tris-HCl buffer, containing NaCl 120 mM, KCl 5 mM, MgCl2 1 mM, CaCl2 1 mM). Vortex mixer was used for blending, and then 5 ml of buffer was added (0.05 M Tris-HCl buffer, containing NaCl 120 mM, KCl 5 mM, MgCl2 1 mM, CaCl2 1 mM). Centrifugation was conducted (repeated 3 times). After the centrifugations, the supernatant was discarded, and the pellets were stored at −80° C. for future use.
Beckman LS-6500 Multi-function Liquid Scintillation Counter was used.
(1) The prepared membrane was first applied with appropriate amount of homogenized liquid, and homogenizer was used for evenly dispersing. 15 tubes were mixed into a 100 ml container, and appropriate amount of homogenized liquid was added to give 50 ml of membrane suspension, which was reserved for future use.
(2) 100 μL of membrane preparation and 100 μL of buffer were added into each reaction tube.
(3) 100 μL of homogenized liquid was added into the total binding tube (TB), 100 μL of Butaclamol (final concentration 10^−5 M) was added into the non-specific binding tube (NB), and 100 μL of the test compound (final concentration 10^−5 M) was added into the specific binding tube (SB) for each compound.
(5) Each of the reaction tubes was incubated at 37° C. for 20 min. After the reaction was completed, the bound ligands were rapidly filtered under reduced pressure, and the ice-chilled assay buffer was used for adequate washing. The filter was taken out and put into a 3 ml scintillation vial, and 2 ml of toluene scintillation solution was added and blended.
(6) The scintillation vials were put into Liquid Scintillation Counter for counting. Inhibitory rate(1%)=(Total binding tube cpm−compound cpm)/(Total binding tube cpm−non-specific binding tube cpm)×100%
Each assay for the compounds was conducted in duplicate.

5-HT2A receptor = 5-HT2A receptor (Rattus norvegicus, UniProt P14842); assay: 5HT2A receptor binding assay ([3H]-Ketanserin, rat brain striatum membrane); conditions: for IC50: cells marked ^a; for IC50 / inhibition at 10 µM: [3H]-Ketanserin, rat brain striatum membrane; for inhibition at 10 µM: test compound final concentration 10^−5 M, read-out: 5HT2A inhibition %
Chain of 5-HT2A receptor (P14842 whole entry): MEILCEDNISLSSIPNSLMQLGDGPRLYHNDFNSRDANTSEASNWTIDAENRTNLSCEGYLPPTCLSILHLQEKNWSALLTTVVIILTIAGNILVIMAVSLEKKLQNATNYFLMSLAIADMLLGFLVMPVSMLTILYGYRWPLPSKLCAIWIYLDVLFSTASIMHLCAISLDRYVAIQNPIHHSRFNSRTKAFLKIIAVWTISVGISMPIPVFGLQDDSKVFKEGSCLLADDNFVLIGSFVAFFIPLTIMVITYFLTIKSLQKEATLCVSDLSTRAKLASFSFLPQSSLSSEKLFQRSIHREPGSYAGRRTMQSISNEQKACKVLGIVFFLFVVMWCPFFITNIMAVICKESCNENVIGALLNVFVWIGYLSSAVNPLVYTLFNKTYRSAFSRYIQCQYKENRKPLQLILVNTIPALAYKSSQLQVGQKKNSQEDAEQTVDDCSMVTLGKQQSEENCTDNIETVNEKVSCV

mice of Kunming breed = assay: MK-801 induced high activity in mice; format: in vivo; conditions: for ED50: Mus musculus, 1.5 h, po, MK-801 0.1 mg/kg ip, spontaneous activity in 90 min
Description: Healthy mice of Kunming breed (with half male and half female, (20±2)g) were provided by Qinglongshan Animal Cultivation Center, Nanjing.
Subsequently, the spontaneous activities of the mice of each group in 90 min were measured.

KM mice = assay: Apomorphine induced clambering assay of mice; format: in vivo; conditions: for ED50: Mus musculus, po, apomorphine 1 mg/kg sc
Description: Healthy KM mice (male, with body weight of 18-22 g) were provided by Qinglongshan Animal Cultivation Center, Nanjing.
Test positive drugs: haloperidol, clozapine, risperidone, olanzapine, aripiprazole, ziprasidone, quetiapine.
Apomorphine provided by Sigma Company was dissolved in 0.9% NaCl (containing 0.1% vitamin C) before use, and was freshly formulated before use.
Corresponding solvent double-distilled water was administered intragastrically to the negative control group and the model group, corresponding positive drugs were administered intragastrically to the positive drug groups (a small amount of acetic acid was first added and then double-distilled water was added when dissolving), and corresponding dosages of compounds were administered intragastrically to the compound groups for each dosage, with the volume for intragastric administration as 0.1 ml/10 g. 1 hour after the intragastric administration, apomorphine was subcutaneously injected (1 mg/kg), with the volume as 0.1 ml/10 g. After the injection of apomorphine, the mice were immediately put into the clambering cages. After 5 min of adaptation, the behaviors of the mice at 10-11, 20-21, and 30-31 min after the injection of apomorphine were observed and scored. Scoring criteria: 4 paws on the floor was scored as 0; 2 forepaws on the cage was scored as 1; and 4 paws on the cage was scored as 2.

[1] = in vitro receptor binding assay
[2] = test compound final concentration 10^−5 M, [3H]-mesulergine, rat brain striatum membrane

Row | SMILES | LD50 (in vivo) | inhibition at 10 µM (D3 receptor) | affinity for D3 receptor (in words) (D3 receptor) | IC50 (5-HT1A receptor) | affinity for 5-HT1A receptor (in words) (5-HT1A receptor) | affinity for D2 receptor (in words) (dopamine D2 receptor) | inhibition at 10 µM (dopamine D2 receptor) | IC50 (5-HT2A receptor) | ED50 (KM mice) | affinity for 5-HT2C receptor (in words) (5-HT2C receptor) | inhibition at 10 µM (5-HT2C receptor; [2]) | affinity for 5-HT2A receptor (in words) (5-HT2A receptor) | melting point | inhibition at 10 µM (5-HT1A receptor) | inhibition at 10 µM (5-HT2A receptor) | further results
1 | O=c1ccc2ccc(OCCCCN3CCC(c4noc5cc(F)ccc45)CC3)cc2o1 [Compound 1, 7-(4-(4-(3-(6-fluoro-benzisoxazole)-1-piperidyl)-n-butoxy))-2H-benzopyran-2-one] | > 2000 mg/kg | 97.6% | relatively stronger affinities | 9.61 nM | relatively stronger affinities | relatively stronger affinities | 128% | 1.53 nM | 0.32 mg/kg | – | – | – | – | – | – | affinity for 5-HT2C receptor (in words) (5-HT2C receptor; [1]): lower affinities; inhibition at 10 µM (5-HT2C receptor): 88%; ED50 (Catalepsy assay): 1.41 mg/kg; affinity for 5-HT2A receptor (in words) (5-HT2A receptor; [1]): relatively stronger affinities; ED50 (mice of Kunming breed): 0.61 mg/kg
2 | Cc1cc(=O)oc2cc(OCCCCN3CCC(c4noc5cc(F)ccc45)CC3)ccc12 [Compound 6, 7-(4-(4-(3-(6-fluoro-benzisoxazole)-1-piperidyl)-n-butoxy))-4-methyl-2H-benzopyran-2-one] | > 2000 mg/kg | 100% | relatively stronger affinities | 3.52 nM | relatively stronger affinities | relatively stronger affinities | 101% | 0.39 nM | 0.11 mg/kg | – | – | – | – | – | – | affinity for 5-HT2C receptor (in words) (5-HT2C receptor; [1]): lower affinities; inhibition at 10 µM (5-HT2C receptor): 91.4%; ED50 (Catalepsy assay): 0.68 mg/kg; affinity for 5-HT2A receptor (in words) (5-HT2A receptor; [1]): relatively stronger affinities; ED50 (mice of Kunming breed): 0.32 mg/kg
3 | O=c1cc(-c2ccccc2)c2ccc(OCCCN3CCN(c4nsc5ccccc45)CC3)cc2o1 [Compound 12, 7-(3-(4-(3-(1,2-benzisothiazole)-1-piperazinyl)-n-propoxy))-4-phenyl-2H-benzopyran-2-one] | – | 103% | relatively stronger affinities | 127 nM | relatively stronger affinities | relatively stronger affinities | 124% | 9.26 nM | – | lower affinities | 93.4% | relatively stronger affinities | – | – | – | –
4 | O=c1cc(C(F)(F)F)c2ccc(OCCCCN3CCN(c4nsc5ccccc45)CC3)cc2o1 [Compound 18, 7-(4-(4-(3-(1,2-benzisothiazole)-1-piperazinyl)-n-butoxy))-4-(trifluoromethyl)-2H-benzopyran-2-one] | – | 103% | relatively stronger affinities | 6.19 nM | relatively stronger affinities | relatively stronger affinities | 113% | 0.79 nM | – | lower affinities | 77.6% | relatively stronger affinities | 93 to 95 °C | – | – | –
5 | Cc1cc(=O)oc2c(Cl)c(OCCCN3CCN(c4nsc5ccccc45)CC3)ccc12 [Compound 22, 7-(3-(4-(3-(1,2-benzisothiazole)-1-piperazinyl)-n-propoxy))-4-methyl-8-chloro-2H-benzopyran-2-one] | – | 104% | relatively stronger affinities | 12.8 nM | relatively stronger affinities | relatively stronger affinities | 112% | 6.88 nM | – | lower affinities | 99.8% | relatively stronger affinities | 162 to 164 °C | – | – | –
6 | O=c1cc(CO)c2ccc(OCCCCN3CCC(c4noc5cc(F)ccc45)CC3)cc2o1 [Compound 31, 7-(4-(4-(3-(6-fluoro-benzisoxazole)-1-piperidyl)-n-butoxy))-4-hydroxymethyl-2H-benzopyran-2-one] | – | – | – | – | – | – | 2.4% | – | – | – | – | – | 160 to 162 °C | 63.9% | 1.8% | –
7 | Cc1cc(=O)oc2cc(OCC(O)CN3CCC(c4noc5cc(F)ccc45)CC3)ccc12 (centres unmarked) [Compound 32, 7-(3-(4-(3-(6-fluoro-benzisoxazole)-1-piperidyl)-2-hydroxylpropoxy))-4-methyl-2H-benzopyran-2-one] | – | – | – | – | – | – | 62.6% | – | – | – | – | – | 183 to 185 °C | 103% | 157% | –
8 | O=c1cc(-c2ccccc2)c2ccc(OCC(O)CN3CCC(c4noc5cc(F)ccc45)CC3)cc2o1 (centres unmarked) [Compound 33, 7-(3-(4-(3-(6-fluoro-benzisoxazole)-1-piperidyl)-2-hydroxylpropoxy))-4-phenyl-2H-benzopyran-2-one] | – | – | – | – | – | – | 110% | – | – | – | – | – | 193 to 195 °C | 23.5% | 129% | –
9 | Cc1cc2c(s1)Nc1ccccc1N=C2N1CCN(C)CC1 [olanzapine, reference compound] | – | – | – | – | – | – | – | – | 0.11 mg/kg | – | – | – | – | – | – | –
10 | Cc1nc2n(c(=O)c1CCN1CCC(c3noc4cc(F)ccc34)CC1)CCCC2 [risperidone, reference compound] | 82.1 mg/kg | – | – | – | – | – | – | – | 0.015 mg/kg | – | – | – | – | – | – | improvement of MK-801 induced high activity (in words) (mice of Kunming breed; compared to the model group): significantly improve; improvement of apomorphine induced clambering symptoms (in words) (KM mice): effectively improve
